Source: patent US11034742B2, “Peptides with antibiotic potential against Mycobacterium tuberculosis” (LINNANE PHARMA AB, priority 2017, dated 2021)
“Also recorded” adds a separate entry of the source. Like-named read-outs stand apart in the source and are kept apart here. Marks after values point to notes of the source that are not given here. Positions of bridges follow the written chain, without caps; N, C: chain ends. Residues, ends and D or L forms follow the SMILES beside them.

How the values were obtained:
M. tuberculosis H37Rv [1] = assay type: in vivo, BALB/c mice; details: 0.83 mg
[2] = test system: primary human macrophages; test: Cytotoxicity, MTT assay; assay type: cell-based; details: for macrophage viability (MTT): 6.3 μM peptide concentration; for toxicity to human cells / macrophages (in words): primary human macrophages
Method: (§1) Human venous blood mononuclear cells were obtained from healthy volunteers using a Lymphoprep density gradient (Axis-Shield, Oslo, Norway) according to the manufacturers instructions. To obtain pure monocytes, the cell suspension was applied to CD14 micro beads (MACS), washed and passed through magnetic column according to manufacturers description. The monocytes were counted (Sysmex), diluted in RPMI medium containing GM-CSF (50 ng/mL) and seeded in 96-well plates (10^5/well) for a week to differentiate into macrophages.
(§2) Primary macrophages were prepared from whole blood (see above). The medium was replaced with fresh medium containing 0, 6.3, 12.5, 25 or 100 μM peptides and incubated for 0, 1, 4 and 24 h in 5% CO2 atmosphere. For cytotoxicity measurement, 10 μl 3-(4,5-dimethylthiazol-2-yl)-2,5 diphenyltetrazolium bromide (MTT) solution (Sigma) was added to each well according to manufacturers instructions, and analyzed in a spectrophotometer at 580 nm.

Cytotoxicity, MTT assay = assay type: cell-based, human; details: human, primary human monocyte-derived macrophages; 6.3 μM peptide concentration; read-out: macrophage viability (MTT)
Method: as §1, §2

[3] = test system: primary human macrophages; test: Cytotoxicity, PrestoBlue (reducing metabolites); assay type: cell-based; details: 100 μM, 24 hours
Method: as §1
(§3) The variant antimicrobial peptide of SEQ ID NO: 3 cytotoxicity was further examined by PrestoBlue® and ATPlite™ assays. Primary macrophages were treated with 100 μM variant antimicrobial peptide of SEQ ID NO: 3 or 50 μM Staurosporine (S-4400, Sigma) for 24 hours. Cell viability was assessed with PrestoBlue® fluorescence (A13261, Thermo Scientific) and cellular ATP levels using ATPlite™ kit (#6016943, Perkin Elmer) compared to untreated control, according to the manufacturers' instructions.

human α-thrombin = target: T1, human α-thrombin (Homo sapiens, UniProt P00734); test: Protease sensitivity assay, α-thrombin; assay type: in vitro ADME; details: 37° C., 6 h
T1 construct: human α-thrombin (0.4 μg Innovative Research); purchased Innovative Research
Method: (§4) The variant antimicrobial peptide of SEQ ID NO: 3 (1 μg) was incubated at 37° C. with human neutrophil elastase (HNE, 0.4 μg, 29 units/mg; Calbiochem (La Jolla, Calif.), Cathepsin G (0.4 μg, EMD Millipore) and human α-thrombin (0.4 μg Innovative Research) in a total volume of 20 μL for 6 h. Furthermore 2 μg of the variant antimicrobial peptide of SEQ ID NO: 3 was incubated with 0.4 μg of HNE for kinetic study of peptide degradations. The materials were analyzed on 10-20% precast SDS-PAGE Tris-Tricine gels (Life Technologies) and analyzed after staining with Coomassie Blue R-250. […]

M. tuberculosis H37Rv [4] = test: Murine TB model, lung histology and immunohistochemistry; design: species or system BALB/c mice; details: mouse, in vivo
[5] = test system: M. tuberculosis H37Rv and TB2016/268; assay type: cell-based, Mycobacterium tuberculosis; details: gold-labelled peptide, 6.3 μM
[6] = target: T2, human neutrophil elastase (HNE) (Homo sapiens, UniProt P08246); test: Protease sensitivity assay, HNE; assay type: in vitro ADME; details: isolated human neutrophil elastase (HNE), after 22 hours, 37° C., read-out: peptide breakdown by HNE
T2 construct: purchased Calbiochem (La Jolla, Calif.)
T2 sequence (P08246 30-267): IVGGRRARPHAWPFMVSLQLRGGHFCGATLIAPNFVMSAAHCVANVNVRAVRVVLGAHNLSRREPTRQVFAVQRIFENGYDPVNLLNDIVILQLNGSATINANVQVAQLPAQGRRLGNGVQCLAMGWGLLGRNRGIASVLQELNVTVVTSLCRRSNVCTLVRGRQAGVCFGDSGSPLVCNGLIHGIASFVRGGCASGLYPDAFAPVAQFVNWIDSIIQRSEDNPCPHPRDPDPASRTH
Method: as §4

[7] = test system: primary human macrophages; test: Cytotoxicity, ATPlite (cellular ATP levels); assay type: cell-based; details: 100 μM, 24 hours
Method: as §1, §3

Cathepsin G = target: T3, Cathepsin G (Homo sapiens, UniProt P08311); test: Protease sensitivity assay, Cathepsin G; assay type: in vitro ADME; details: 37° C., 6 h
T3 construct: purchased EMD Millipore
T3 sequence (P08311 21-244): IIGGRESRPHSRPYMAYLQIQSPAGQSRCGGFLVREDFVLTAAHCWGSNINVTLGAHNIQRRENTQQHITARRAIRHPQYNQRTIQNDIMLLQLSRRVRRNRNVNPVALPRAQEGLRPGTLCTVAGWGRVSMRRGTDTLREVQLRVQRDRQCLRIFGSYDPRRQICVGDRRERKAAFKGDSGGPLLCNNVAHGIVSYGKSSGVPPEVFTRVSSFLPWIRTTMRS
Method: as §4

[8] = test system: M. tuberculosis H37Rv and clinical isolate TB2016/268; assay type: cell-based, Mycobacterium tuberculosis
M. tuberculosis = details: Table 1; from Schon et al. 2009; cited from earlier work

| SMILES | lung CFU reduction vs control animals (M. tuberculosis H37Rv [1]; five days of daily intra-tracheal treatment) | lung CFU reduction vs control animals (M. tuberculosis H37Rv [1]; three days of daily intra-tracheal treatment) | macrophage viability (MTT) [2] | toxicity to human cells / macrophages (in words) [2] | viability at 6.3 µM (Cytotoxicity, MTT assay) | toxicity, reducing metabolites (PrestoBlue) [3] | peptide degradation by human α-thrombin (human α-thrombin) | lung tissue damage, inflammation, bacterial and neutrophil counts (IHC, H&E) (M. tuberculosis H37Rv [4]) | association of peptide with the mycobacterial membrane (TEM) [5] | metabolised at 22 h [6] | toxicity, cellular ATP levels (ATPlite) [7] | peptide degradation by Cathepsin G (Cathepsin G) | Mycobacterial killing efficiency [8] | MIC (mg/L) (M. tuberculosis) | MIC (μM) (M. tuberculosis) |
| --- | --- | --- | --- | --- | --- | --- | --- | --- | --- | --- | --- | --- | --- | --- | --- |
| CC[C@H](C)[C@@H]1NC(=O)[C@H](CO)NC(=O)[C@H](CCCCN)NC(=O)[C@@H]2CSSC[C@@H](C(=O)N[C@@H](Cc3ccc(O)cc3)C(=O)O)NC(=O)[C@H](CCCCN)NC(=O)[C@@H]3CSSC[C@H](NC(=O)[C@H](CCC(N)=O)NC(=O)[C@H]([C@@H](C)CC)NC(=O)[C@H](CC(=O)O)NC(=O)[C@H](CC(=O)O)NC(=O)[C@H](CCC(=O)O)NC(=O)[C@H](CO)NC(=O)[C@H](Cc4c[nH]c5ccccc45)NC(=O)[C@@H]4CCCN4C(=O)CNC(=O)[C@H](CC(N)=O)NC(=O)[C@@H](NC(=O)CNC(=O)[C@H](Cc4ccccc4)NC(=O)CN)CSSC[C@H](NC(=O)[C@H](Cc4ccc(O)cc4)NC(=O)CNC(=O)CNC(=O)[C@H](CCCCN)NC(=O)[C@H](Cc4ccc(O)cc4)NC(=O)CNC(=O)[C@H](CCCCN)NC1=O)C(=O)N[C@@H](C)C(=O)N[C@@H](CCCNC(=N)N)C(=O)NCC(=O)NCC(=O)N[C@@H](Cc1ccccc1)C(=O)N[C@@H](C(C)C)C(=O)N3)C(=O)N[C@@H](Cc1c[nH]cn1)C(=O)N[C@@H](CC(N)=O)C(=O)N[C@@H](Cc1c[nH]cn1)C(=O)N2 [SEQ ID NO: 3] (H-GFGCNGPWSEDDIQCHNHCKSIKGYKGGYCARGGFVCKCY-OH; disulfide 4-30, 15-37, 19-39 (inferred); N-terminus and C-terminus assumed) | 86% | 46% | 87.5% | not Toxic to Human Cells | 87.5% | did not show any toxicity | only HNE showed peptide degradation | less tissue damage, lower bacterial and neutrophil counts than infected controls; also recorded: low counts of both neutrophils and bacteria in the lungs | associated with the mycobacterial envelope within one hour of exposure and disrupted bacterial membranes; also recorded: associated with the mycobacterial membrane | ~50% | did not show any toxicity | only HNE showed peptide degradation | 73.8% | – | – |
| CC[C@@H](CO)NCCN[C@@H](CC)CO [Ethambutol] | – | – | – | – | – | – | – | – | – | – | – | – | – | 5.0* mg/L | 24.5* μM |
| NNC(=O)c1ccncc1 [Isoniazid] | – | – | – | – | – | – | – | – | – | – | – | – | – | 0.2* mg/L | 1.5* μM |
| CC[C@H](C)[C@@H]1NC(=O)[C@H](C)NC(=O)[C@@H]2CSSC[C@H](NC(=O)CNC(=O)[C@H](Cc3ccccc3)NC(=O)CN)C(=O)N[C@@H](CC(N)=O)C(=O)NCC(=O)N3CCC[C@H]3C(=O)N[C@@H](Cc3c[nH]c4ccccc34)C(=O)N[C@@H](CO)C(=O)N[C@@H](CCC(=O)O)C(=O)N[C@@H](CC(=O)O)C(=O)N[C@@H](CC(=O)O)C(=O)N[C@@H]([C@@H](C)CC)C(=O)N[C@@H](CCC(N)=O)C(=O)N[C@H]3CSSC[C@H](NC(=O)[C@H](C(C)C)NC(=O)[C@H](Cc4ccccc4)NC(=O)CNC(=O)CNC1=O)C(=O)N[C@@H](CCCCN)C(=O)N[C@H](C(=O)N[C@@H](Cc1ccc(O)cc1)C(=O)O)CSSC[C@H](NC(=O)[C@H](Cc1c[nH]cn1)NC(=O)[C@H](CC(N)=O)NC(=O)[C@H](Cc1c[nH]cn1)NC3=O)C(=O)N[C@@H](CCCCN)C(=O)N[C@@H](CO)C(=O)N[C@@H]([C@@H](C)CC)C(=O)N[C@@H](CCCCN)C(=O)NCC(=O)N[C@@H](Cc1ccc(O)cc1)C(=O)N[C@@H](CCCCN)C(=O)NCC(=O)NCC(=O)N[C@@H](Cc1ccc(O)cc1)C(=O)N2 [SEQ ID NO: 4] (H-GFGCNGPWSEDDIQCHNHCKSIKGYKGGYCAIGGFVCKCY-OH; disulfide 4-30, 15-37, 19-39 (inferred); N-terminus and C-terminus assumed) | – | – | 86.3% | not Toxic to Human Cells | 86.3% | – | – | – | – | – | – | – | 74.8% | – | – |
